Measurements: publication PMC2770896, “Inhibition of Neuraminidase Inhibitor-Resistant Influenza Virus by DAS181, a Novel Sialidase Fusion Protein” (PLoS ONE, 2009)

What was measured:
[1] = system: Human renal cortical epithelial cells; assay: Primary cell cytotoxicity, MTS assay; type: cell-based; details: 24 hrs or 72 hrs exposure, DAS181 various concentrations, 0.2% thimerosol, 1 mM CdCl2
Description: (§1) Primary cryopreserved human renal cells (Proximal Tubule Epethelial and Cortical Epethelial cells) were thawed, plated, and propagated according to Cambrex’s recommended protocol. Both renal cell lines were thawed and plated at a seeding density of 2500 cells/cm^2 with Renal Epethelial Basal Medium (REBM) supplemented with Cambrex REGM SingleQuots® (Cambrex CC-4127); which includes recombinant human epidermal growth factor, insulin, GA-1000, 0.5% Fetal Bovine Serum, hydrocortisone, transferrin, epinephrine, and triiodothyronine (T3). The cells were allowed to adhere and equilibrate for 24 hours at 37°C with 5% CO2. […] All the renal cells were further subcultured and seeded into 10 tissue culture-coated 24 well plates per cell line at a seeding density of 2.5x10^3 cells/cm^2. Once the cells reached approximately 70% confluency the 24 well plates were used in cytotoxicity experiments using the REBM supplemented with the REGM SingleQuots®.
(§2) On Day 0 the cell media supernatants were initially collected for baseline controls, before adding fresh media supplemented with either PBS, DAS181 (indicated concentrations), or thimerosal (0.2%) or CdCl^2 (1mM) to serve as positive controls for cytotoxicity. All treatment groups were done in triplicate. Treatments were left on for either 24 hrs or 72 hrs. Subsequently, for the 24 hr exposure conditions fresh media without test article was added to all the wells every 24 hours on days 1-3 (24-72 hours post-treatment); a subset of the wells were used for MTS assay each day. For the 72 hr exposure conditions the media was only changed at 72 hrs, immediately prior to MTS assay. Renal cell media interfered with Lactate Dehydrogenase (LDH) and Alkaline Phosphatase (ALP) assays so these were not performed.
(§3) At each endpoint (24, 48, or 72 hrs) the old media was first replaced with fresh warm media (500uL/well) and the samples were then tested for cell viability using the CellTiter 96® Aqueous Non-Radioactive Cell Proliferation Assay (MTS) kit (Promega, Madison, WI). […] 100μL of each sample was then added to a 96 well plate and read for absorbance at 490 nm. A 1:5 dilution of MTS solution in growth media alone was used as the background. For data analysis, background values were subtracted from all sample values. Values were then normalized using the vehicle control as 100%. Each sample was compared to the vehicle control, via ANOVA with Bonferroni post-test, to determine if there was a statistically significant change in cell viability.

[2] = system: Human renal proximal tubule cells; assay: Primary cell cytotoxicity, MTS assay; type: cell-based; details: 24 hrs or 72 hrs exposure, DAS181 various concentrations, 0.2% thimerosol, 1 mM CdCl2
Description: as §1, §2, §3

A/HongKong/2637/04 = type: cell-based, IFV A (H1N1); details: read-out: EC50
A/HongKong/2765/04 = type: cell-based, IFV A (H1N1); details: read-out: EC50
A/NewJersey/15/07 = type: cell-based, IFV A (H1N1); details: read-out: EC50
A/Hawaii/21/07 = type: cell-based, IFV A (H1N1); details: read-out: EC50
A/St.Louis/539/09 = type: cell-based, IFV A (H1N1); details: read-out: EC50
A/St.Louis/746/09 = type: cell-based, IFV A (H1N1); details: read-out: EC50
A/St.Louis/775/09 = type: cell-based, IFV A (H1N1); details: read-out: EC50
A/St.Louis/758/09 = type: cell-based, IFV A (H1N1); details: read-out: EC50
A/St.Louis/630/09 = type: cell-based, IFV A (H1N1); details: read-out: EC50
A/St.Louis/764/09 = type: cell-based, IFV A (H1N1); details: read-out: EC50
A/St.Louis/690/09 = type: cell-based, IFV A (H1N1); details: read-out: EC50
A/St.Louis/790/09 = type: cell-based, IFV A (H1N1); details: read-out: EC50
A/St.Louis/792/09 = type: cell-based, IFV A (H1N1); details: read-out: EC50
[3] = biological target: NA enzymatic activity of A/Georgia/17/2006 WT (Influenza A virus (H1N1), UniProt A7UPL3); assay: Chemiluminescent neuraminidase activity inhibition (NI) assay; type: biochemical
Method: (§4) The chemiluminescent neuraminidase activity inhibition (NI) assay was conducted using a commercially available kit, NA-Star (Applied Biosystems, Foster City, CA) as previously described. Oseltamivir carboxylate and zanamivir were used at 10 half-log dilutions (0.03 to 1000 nM). Values shown represent mean of triplicate analysis.

[4] = biological target: NA enzymatic activity of A/Hawaii/21/2007 (Influenza A virus (H1N1), UniProt B1AGI9); assay: as above; type: biochemical, IFV A (H1N1)
Method: as §4

[5] = biological target: NA enzymatic activity of A/St.Louis/539/09 (Influenza A virus, UniProt D0FH47); assay: as above; type: biochemical, IFV A (H1N1)
Method: as §4

[6] = biological target: NA enzymatic activity of A/St.Louis/630/09 (Influenza A virus, UniProt D0FH48); assay: as above; type: biochemical, IFV A (H1N1)
Method: as §4

[7] = biological target: NA enzymatic activity of A/St.Louis/690/09 (Influenza A virus, UniProt D0FH49); assay: as above; type: biochemical, IFV A (H1N1)
Method: as §4

[8] = biological target: NA enzymatic activity of A/St.Louis/746/09 (Influenza A virus, UniProt D0FH50); assay: as above; type: biochemical, IFV A (H1N1)
Method: as §4

[9] = biological target: NA enzymatic activity of A/St.Louis/764/09 (Influenza A virus, UniProt D0FH52); assay: as above; type: biochemical, IFV A (H1N1)
Method: as §4

[10] = biological target: NA enzymatic activity of A/St.Louis/775/09 (Influenza A virus, UniProt D0FH53); assay: as above; type: biochemical, IFV A (H1N1)
Method: as §4

[11] = biological target: NA enzymatic activity of A/St.Louis/790/09 (Influenza A virus, UniProt D0FH54); assay: as above; type: biochemical, IFV A (H1N1)
Method: as §4

[12] = biological target: NA enzymatic activity of A/St.Louis/792/09 (Influenza A virus, UniProt D0FH55); assay: as above; type: biochemical, IFV A (H1N1)
Method: as §4

C[CH2][Hg][S]c1ccccc1C(=O)[O-].[Na+] [thimerosol]
Cell viability (MTS) vs PBS [1]: significant reduction in cell viability
Cell viability (MTS) vs PBS [2]: significant reduction in cell viability

CCC(CC)O[C@@H]1C=C(C(=O)O)C[C@H](N)[C@H]1NC(C)=O [oseltamivir, oseltamivir carboxylate]
EC50 (A/HongKong/2637/04): 3270 ± 1320 nM
EC50 (A/HongKong/2765/04): 2920 ± 1000 nM
EC50 (A/NewJersey/15/07): > 400000 nM
EC50 (A/Hawaii/21/07): > 285000 nM
EC50 (A/St.Louis/539/09): > 400000 nM
EC50 (A/St.Louis/746/09): > 400000 nM
EC50 (A/St.Louis/775/09): > 320000 nM
EC50 (A/St.Louis/758/09): > 400000 nM
EC50 (A/St.Louis/630/09): > 400000 nM
EC50 (A/St.Louis/764/09): > 400000 nM
EC50 (A/St.Louis/690/09): > 400000 nM
EC50 (A/St.Louis/790/09): > 304000 nM
EC50 (A/St.Louis/792/09): > 400000 nM
IC50 ([3]; A/Georgia/17/2006 WT reference virus, mean of triplicate analysis): 0.37 nM
R/S ([3]; A/Georgia/17/2006 WT, NI assay): S
R/S ([4]; A/Hawaii/21/2007, NI assay): R
IC50 ([4]; A/Hawaii/21/2007 reference virus, mean of triplicate analysis): 110 nM
R/S ([5]; NI assay): R
IC50 ([5]; mean of triplicate analysis): 84.9 nM
R/S ([6]; NI assay): R
IC50 ([6]; mean of triplicate analysis): 224 nM
R/S ([7]; NI assay): R
IC50 ([7]; mean of triplicate analysis): 178 nM
R/S ([8]; NI assay): R
IC50 ([8]; mean of triplicate analysis): 89.9 nM
R/S ([9]; NI assay): R
IC50 ([9]; mean of triplicate analysis): 103 nM
R/S ([10]; NI assay): R
IC50 ([10]; mean of triplicate analysis): 91.8 nM
R/S ([11]; NI assay): R
IC50 ([11]; mean of triplicate analysis): 87.8 nM
R/S ([12]; NI assay): R
IC50 ([12]; mean of triplicate analysis): 91.5 nM
